For the experiment, the target named is T1, recombinant IL4I1 (Homo sapiens, UniProt Q96RQ9).
T1 construct: purchased R&D Systems 5684-AO-020
T1 sequence (Q96RQ9 22-567): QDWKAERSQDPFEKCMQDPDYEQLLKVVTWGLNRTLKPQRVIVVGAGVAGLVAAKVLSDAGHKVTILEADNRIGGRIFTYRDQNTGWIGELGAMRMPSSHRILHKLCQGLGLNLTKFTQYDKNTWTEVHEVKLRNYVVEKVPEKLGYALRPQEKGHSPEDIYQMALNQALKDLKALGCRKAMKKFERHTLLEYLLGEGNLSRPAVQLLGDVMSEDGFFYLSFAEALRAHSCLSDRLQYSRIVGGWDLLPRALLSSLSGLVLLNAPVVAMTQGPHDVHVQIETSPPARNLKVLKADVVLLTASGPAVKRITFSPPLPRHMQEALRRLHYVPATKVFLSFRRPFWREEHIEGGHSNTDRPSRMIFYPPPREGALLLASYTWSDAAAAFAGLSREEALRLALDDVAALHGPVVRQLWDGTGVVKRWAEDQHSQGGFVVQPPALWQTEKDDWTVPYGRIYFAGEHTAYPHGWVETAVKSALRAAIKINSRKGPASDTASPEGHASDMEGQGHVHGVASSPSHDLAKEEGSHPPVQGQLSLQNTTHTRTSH
As to the kind of experiment: IL4I1 Enzymatic Assay (Amplex Red/HRP coupled H2O2 detection). Format: biochemical. To be noted: 240 min; four-hour pre-incubation with compound; 1 nM IL4I1, 1 mM each Phe/Tyr/Trp; ten-point titration; fluorescence readout; read-out: Potency EC50 (nM) (240 min). In outline: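 Recombinant IL4I1 at 1 nM final, pre-incubated 4 h with compound (0.1% DMSO) at ambient temperature in 50 mM Hepes pH 7.0, 0.005% Tween20; 1 mM each Phe/Tyr/Trp, 120 min, H2O2 read via Amplex Red/HRP fluorescence (544/590 nm). EC50 from ten-point four-parameter fit.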
With `COc1cc(CNC(C)=O)ccc1Cn1c(=O)[nH]c2ccccc21` [Example 5, N-(3-methoxy-4-((2-oxo-2,3-dihydro-1H-benzo[d]imidazol-1-yl)methyl)benzyl)acetamide], the concentration for a half-maximal effect (EC50) amounted to 15 nM.
As for `O=c1[nH]c2sccc2n1Cc1ccccc1` [Example 112, 1-benzyl-1,3-dihydro-2H-thieno[2,3-d]imidazol-2-one], the figure is 1320 nM; as for `Cn1c(=O)n(Cc2cccc(OC(F)(F)F)c2)c2ccccc21` [Example 89, 1-methyl-3-(3-(trifluoromethoxy)benzyl)-1,3-dihydro-2H-benzo[d]imidazol-2-one], 29 nM; as for `COc1ccccc1Cn1c(=O)[nH]c2c(C)cccc21` [Example 92, 1-(2-methoxybenzyl)-4-methyl-1,3-dihydro-2H-benzo[d]imidazol-2-one], 396 nM.
The result for `CN(Cc1ccc(Cn2c(=O)[nH]c3ccccc32)cc1)S(=O)(=O)C1CC1` [Example 75, N-methyl-N-(4-((2-oxo-2,3-dihydro-1H-benzo[d]imidazol-1-yl)methyl)benzyl)cyclopropanesulfonamide] reads 16 nM; that for `CC(C)C1CC(Cn2c(=O)[nH]c3ccccc32)C1` (stereo not drawn) [Example 57, 1-{[3-(propan-2-yl)cyclobutyl]methyl}-1,3-dihydro-2H-benzimidazol-2-one], 3040 nM.
The result for `O=c1[nH]c2ccccc2n1Cc1ccc(CN2CCOCS2(=O)=O)cc1` [Example 20, 1-(4-((3,3-dioxido-1,3,4-oxathiazinan-4-yl)methyl)benzyl)-1,3-dihydro-2H-benzo[d]imidazol-2-one] reads 7 nM; that for `O=c1[nH]c2ccccc2n1CCC1CCCCC1` [Example 58, 1-(2-cyclohexylethyl)-1,3-dihydro-2H-benzimidazol-2-one], 936 nM.
For `CC1NC(=O)c2cc(Cn3c(=O)[nH]c4ccccc43)ccc21` (stereo not drawn) [Example 33, 1-[(1-methyl-3-oxo-2,3-dihydro-1H-isoindol-5-yl)methyl]-1,3-dihydro-2H-benzimidazol-2-one], the 50% effective concentration (EC50) was 15 nM.
As to `O=c1[nH]c2ccccc2n1Cc1ccc(CN2CCCS2(=O)=O)cc1` [Example 26, 1-(4-((1,1-dioxidoisothiazolidin-2-yl)methyl)benzyl)-1,3-dihydro-2H-benzo[d]imidazol-2-one], the EC50 came to 6 nM.
The result for `O=C1CCCN1Cc1ccc(Cn2c(=O)[nH]c3ccccc32)cn1` [Example 41, 1-((6-((2-oxopyrrolidin-1-yl)methyl)pyridin-3-yl)methyl)-1,3-dihydro-2H-benzo[d]imidazol-2-one] reads 127 nM; that for `O=c1[nH]c2ccccc2n1Cc1cccc(-c2nnco2)c1` [Example 27, 1-(3-(1,3,4-oxadiazol-2-yl)benzyl)-1,3-dihydro-2H-benzo[d]imidazol-2-one], 7 nM; that for `CCc1ccc2c(c1)[nH]c(=O)n2Cc1ccccc1` [Example 109, 1-benzyl-5-ethyl-1,3-dihydro-2H-benzo[d]imidazol-2-one], 4940 nM.
For `CC(=O)N[C@H]1CC[C@H](Cn2c(=O)[nH]c3ccccc32)CC1` [Example 99, N-((1r,4r)-4-((2-oxo-2,3-dihydro-1H-benzo[d]imidazol-1-yl)methyl)cyclohexyl)acetamide], the concentration for a half-maximal effect (EC50) was determined as 2690 nM.
As for `CN(C)C(=O)Cc1ccc(Cn2c(=O)[nH]c3ccc(F)cc32)cc1` [Example 66, 2-(4-((6-fluoro-2-oxo-2,3-dihydro-1H-benzo[d]imidazol-1-yl)methyl)phenyl)-N,N-dimethylacetamide], the EC50 turned out to be 16 nM.
In the case of `COc1ccccc1Cn1c(=O)[nH]c2ccc(C)cc21` [Example 86, 1-(2-methoxybenzyl)-6-methyl-1,3-dihydro-2H-benzo[d]imidazol-2-one], the concentration for a half-maximal effect (EC50) was 74 nM.
As for `O=C1CCCN1Cc1c(F)cc(Cn2c(=O)[nH]c3ccccc32)cc1F` [Example 23, 1-({3,5-difluoro-4-[(2-oxopyrrolidin-1-yl)methyl]phenyl}methyl)-1,3-dihydro-2H-benzimidazol-2-one], the figure is 18 nM; as for `O=c1[nH]c2ccccc2n1Cc1cc(C(F)F)cc(C(F)F)c1` [Example 30, 1-{[3,5-bis(difluoromethyl)phenyl]methyl}-1,3-dihydro-2H-benzimidazol-2-one], 9 nM.
As for `O=C1CCCN1Cc1ncc(Cn2c(=O)[nH]c3ccccc32)cc1Cl` [Example 25, 1-((5-chloro-6-((2-oxopyrrolidin-1-yl)methyl)pyridin-3-yl)methyl)-1,3-dihydro-2H-benzo[d]imidazol-2-one], the figure is 47 nM; as for `O=C1CCCN1Cc1ccc(Cn2c(=O)[nH]c3ccccc32)cc1` [Example 1, 1-(4-((2-oxopyrrolidin-1-yl)methyl)benzyl)-1,3-dihydro-2H-benzo[d]imidazol-2-one], 13 nM; as for `CS(=O)(=O)NCc1ccc(Cn2c(=O)[nH]c3ccccc32)s1` [Example 6, N-((5-((2-oxo-2,3-dihydro-1H-benzo[d]imidazol-1-yl)methyl)thiophen-2-yl)methyl)methanesulfonamide], 6 nM.
As for `O=c1[nH]c2ccccc2n1CC1CCN(c2ccccn2)CC1` [Example 115, 1-((1-(pyridin-2-yl)piperidin-4-yl)methyl)-1,3-dihydro-2H-benzo[d]imidazol-2-one], the figure is 1300 nM.
As for `O=C(Cc1cccc(Cn2c(=O)[nH]c3ccccc32)c1)Nc1cccnc1` [Example 103, 2-(3-((2-oxo-2,3-dihydro-1H-benzo[d]imidazol-1-yl)methyl)phenyl)-N-(pyridin-3-yl)acetamide], the concentration giving a half-maximal response (EC50) amounted to 4 nM.
The result for `O=C(c1cccc(Cn2c(=O)[nH]c3ccccc32)c1)N1CCC1` [Example 102, 1-(3-(azetidine-1-carbonyl)benzyl)-1,3-dihydro-2H-benzo[d]imidazol-2-one] reads 8 nM; that for `N#Cc1cc(Cn2c(=O)[nH]c3ccccc32)ccc1CN1CCCC1=O` [Example 24, 5-((2-oxo-2,3-dihydro-1H-benzo[d]imidazol-1-yl)methyl)-2-((2-oxopyrrolidin-1-yl)methyl) benzonitrile], 24 nM; that for `CNC(=O)Cc1ccc(Cn2c(=O)[nH]c3ccc(F)cc32)cc1` [Example 67, 2-(4-((6-fluoro-2-oxo-2,3-dihydro-1H-benzo[d]imidazol-1-yl)methyl)phenyl)-N-methylacetamide], 9 nM.
On to `O=C(NCC(F)(F)F)c1cccc(Cn2c(=O)[nH]c3ccccc32)c1` [Example 101, 3-((2-oxo-2,3-dihydro-1H-benzo[d]imidazol-1-yl)methyl)-N-(2,2,2-trifluoroethyl)benzamide], for which the EC50 turned out to be 90 nM.
As for `O=C1CCCN1Cc1ccc(Cn2c(=O)[nH]c3ccccc32)c(F)c1` [Example 8, 1-({2-fluoro-4-[(2-oxopyrrolidin-1-yl)methyl]phenyl}methyl)-1,3-dihydro-2H-benzimidazol-2-one], the figure is 11 nM.
`CC(=O)NCc1sc(Cn2c(=O)[nH]c3ccccc32)cc1C` [Example 40, N-((3-methyl-5-((2-oxo-2,3-dihydro-1H-benzo[d]imidazol-1-yl)methyl)thiophen-2-yl)methyl)acetamide]: the EC50 worked out at 7 nM.
Take `O=C(Cc1ccc(Cn2c(=O)[nH]c3ccccc32)cc1)N1CCC(F)C1` (stereo not drawn) [Example 108, 1-(4-(2-(3-fluoropyrrolidin-1-yl)-2-oxoethyl)benzyl)-1,3-dihydro-2H-benzo[d]imidazol-2-one]: the concentration for a half-maximal effect (EC50) came to 8 nM.

The values are drawn from patent publication US12454525B2, “IL4I1 inhibitors and methods of use” (Merck Sharp & Dohme LLC, priority 2020, dated 2025).
